Measured values: patent US11912693B2, “Compounds for modulating S1P1 activity and methods of using the same” (TREVENA, INC., priority 2017, dated 2024)

What was measured:
[1] = target: T1, human sphingosine-1-phosphate receptor 1 (S1P1) (Homo sapiens (Human), UniProt P21453); experiment: Inhibition of cAMP production (HTRF cAMP HiRange), S1P1 CHO-K1 cells; assay type: cell-based; settings: for Emax: CHO-K1, efficacy (SPAN) normalized to fingolimod, read-out: hS1P1 cAMP SPAN; for hS1P1 cAMP pEC50: inhibition of cAMP production, S1P1 CHO-K1 cells
Summary of the method: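 CHO-K1 cells stably co-expressing human S1P1 (C-terminal Prolink tag) and EA-β-arrestin2 were grown in AssayComplete Media 6 at 37° C. and 5% CO2, plated, and incubated overnight. Agonist-driven inhibition of intracellular cAMP was read by TR-FRET with the HTRF cAMP HiRange kit on a PheraStar reader. Potency is pEC50, and efficacy (SPAN) is normalized to fingolimod.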
Target sequence in this assay (P21453 whole entry, looked up): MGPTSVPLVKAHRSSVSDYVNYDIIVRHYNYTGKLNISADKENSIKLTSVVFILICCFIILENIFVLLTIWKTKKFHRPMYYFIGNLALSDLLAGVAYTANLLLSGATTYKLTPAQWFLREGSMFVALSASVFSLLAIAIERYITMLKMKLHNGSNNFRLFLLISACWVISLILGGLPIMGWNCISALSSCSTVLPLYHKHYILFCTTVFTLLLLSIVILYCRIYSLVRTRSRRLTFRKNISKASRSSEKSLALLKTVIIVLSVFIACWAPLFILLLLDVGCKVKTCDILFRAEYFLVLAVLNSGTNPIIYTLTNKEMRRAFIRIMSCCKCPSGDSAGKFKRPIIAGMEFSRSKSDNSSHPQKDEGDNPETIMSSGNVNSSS

[2] = target: T1, human sphingosine-1-phosphate receptor 1 (S1P1); experiment: β-Arrestin2 recruitment assay (PathHunter), S1P1 CHO-K1 cells; assay type: cell-based; settings: for Emax: CHO-K1, efficacy (SPAN) normalized to fingolimod, read-out: hS1P1 B-arrestin2 SPAN; for hS1P1 B-arrestin2 pEC50: β-arrestin2 recruitment, S1P1 CHO-K1 cells
Summary of the method: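 Enzyme-fragment complementation read-out: agonist-driven β-arrestin2 binding to ProLink-tagged human S1P1 in stable CHO-K1 cells restores β-galactosidase, measured 1 h at room temperature after a 60 min 37° C. compound incubation. Potency as pEC50, efficacy relative to fingolimod (SPAN).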
Target sequence in this assay (P21453 whole entry, looked up): as above
Target sequence in this assay (P32121 whole entry partner, looked up): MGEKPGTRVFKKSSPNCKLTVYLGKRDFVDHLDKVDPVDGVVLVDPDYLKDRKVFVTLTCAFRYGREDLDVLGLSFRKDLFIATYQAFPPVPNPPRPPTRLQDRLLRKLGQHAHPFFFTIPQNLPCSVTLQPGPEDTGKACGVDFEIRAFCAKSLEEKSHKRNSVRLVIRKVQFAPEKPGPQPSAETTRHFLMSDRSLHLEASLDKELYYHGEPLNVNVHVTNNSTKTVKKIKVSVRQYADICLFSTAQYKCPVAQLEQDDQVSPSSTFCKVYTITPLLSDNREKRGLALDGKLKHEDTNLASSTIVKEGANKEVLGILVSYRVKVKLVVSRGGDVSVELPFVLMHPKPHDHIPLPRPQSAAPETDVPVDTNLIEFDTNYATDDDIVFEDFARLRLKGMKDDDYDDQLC

| Structure (SMILES) | Emax [1] | hS1P1 cAMP pEC50 [1] | Emax [2] | hS1P1 B-arrestin2 pEC50 [2] |
| --- | --- | --- | --- | --- |
| CCC1(CC)CC(=O)c2cc(-c3nc(-c4sccc4C)no3)ccc2O1 [Compound 265, 2,2-diethyl-6-(3-(3-methylthiophen-2-yl)-1,2,4-oxadiazol-5-yl)chroman-4-one] | > 75% | >6.5 | < 75% | >5 |
| CCC1(CC)CC(=O)c2cc(-c3nc(-c4ccc(S(=O)(=O)NC)cc4)no3)ccc2O1 [Compound 266, 4-(5-(2,2-diethyl-4-oxochroman-6-yl)-1,2,4-oxadiazol-3-yl)-N-methylbenzenesulfonamide] |  | <6.5 |  | >5 |
| CCC1(CC)CC(=O)c2cc(-c3nc(-c4ccccc4OC)no3)ccc2O1 [Compound 268, 2,2-diethyl-6-[3-(2-methoxyphenyl)-1,2,4-oxadiazol-5-yl]chroman-4-one] |  | >6.5 |  | >5 |
| CCC1(CC)CC(=O)c2cc(-c3nc(-c4ccc(C)cc4)no3)ccc2O1 [Compound 269, 2,2-diethyl-6-[3-(p-tolyl)-1,2,4-oxadiazol-5-yl]chroman-4-one] | < 75% | <6.5 | < 75% | <5 |
| C=CCn1nnc2cc(-c3nc(-c4ccccc4)no3)ccc21 [Compound 270, 5-(3-phenyl-1,2,4-oxadiazol-5-yl)-1-(prop-2-en-1-yl)-1H-1,2,3-benzotriazole] |  | <6.5 |  | <5 |
| CC(C)CCn1nnc2cc(-c3nc(-c4ccccc4)no3)ccc21 [Compound 271, 1-(3-methylbutyl)-5-(3-phenyl-1,2,4-oxadiazol-5-yl)-1H-1,2,3-benzotriazole] | < 75% | <6.5 | < 75% | <5 |
| COc1cncc(-c2nc(-c3ccc4c(c3)nnn4C(C)C)no2)c1 [Compound 272, 3-(1-isopropyl-1H-benzo[d][1,2,3]triazol-5-yl)-5-(5-methoxypyridin-3-yl)-1,2,4-oxadiazole] | < 75% | <6.5 | < 75% | <5 |
| Cc1cccc(-c2nc(-c3ccc4c(c3)nnn4C3CCCC3)no2)c1 [Compound 273, 3-(1-cyclopentyl-1H-benzo[d][1,2,3]triazol-5-yl)-5-(m-tolyl)-1,2,4-oxadiazole] |  | <6.5 |  | <5 |
| CC1(C)CC(=O)c2cc(-c3nc(-c4cccnc4)no3)ccc2O1 [Compound 274, 2,2-dimethyl-6-[3-(pyridin-3-yl)-1,2,4-oxadiazol-5-yl]-3,4-dihydro-2H-1-benzopyran-4-one] | > 75% | <6.5 | < 75% | >5 |
| COc1ccc(-c2nc(-c3ccc4c(c3)nnn4C3CCCC3)no2)cc1OC [Compound 275, 3-(1-cyclopentyl-1H-benzo[d][1,2,3]triazol-5-yl)-5-(3,4-dimethoxyphenyl)-1,2,4-oxadiazole] | < 75% | <6.5 | < 75% | <5 |
| CC(C)n1nnc2cc(-c3noc(-c4ccccc4C#N)n3)ccc21 [Compound 279, 2-(3-(1-isopropyl-1H-benzo[d][1,2,3]triazol-5-yl)-1,2,4-oxadiazol-5-yl)benzonitrile] | > 75% | <6.5 | > 75% | <5 |
| O=C1CC2(CCCCC2)Oc2ccc(-c3nc(-c4ccncc4)no3)cc21 [Compound 280, 6-[3-(pyridin-4-yl)-1,2,4-oxadiazol-5-yl]-3,4-dihydrospiro[1-benzopyran-2,1′-cyclohexane]-4-one] | < 75% | <6.5 | < 75% | <5 |
| COc1cc(-c2noc(-c3ccc4c(c3)nnn4C3CCCC3)n2)ccn1 [Compound 281, 1-cyclopentyl-5-[3-(2-methoxypyridin-4-yl)-1,2,4-oxadiazol-5-yl]-1H-1,2,3-benzotriazole] | < 75% | <6.5 | < 75% | <5 |
| CC(C)n1nnc2cc(-c3nc(-c4ccccc4Br)no3)ccc21 [Compound 282, 5-[3-(2-bromophenyl)-1,2,4-oxadiazol-5-yl]-1-(propan-2-yl)-1H-1,2,3-benzotriazole] | > 75% | >6.5 | > 75% | >5 |
| Brc1ccccc1-c1nc(-c2ccc3c(c2)nnn3Cc2cccnc2)no1 [Compound 283, 5-(2-bromophenyl)-3-(1-(pyridin-3-ylmethyl)-1H-benzo[d][1,2,3]triazol-5-yl)-1,2,4-oxadiazole] | < 75% | <6.5 | < 75% | <5 |
